In brackets after ≈: the same amount, converted by molar mass. Read-outs that look alike come from different tables or passages of the source.

Data set [1] is described as follows: Solubility in distilled water (Experimental Example 6). Format: physicochemical. Here is the method: First, an excess of each substance was added to distilled water and mixed at room temperature for 12 hours. After standing for 2 hours to take the supernatant, it was filtered using a filter having 0.25 μm pores. After diluting this in methanol again, HPLC analysis was performed.

The nature of data set [2]: Solubility of the compound of formula 1 in various solvents (HPLC). It counts as physicochemical. Particulars: thermodynamic from solid. Here is the method:
Prior to preparing the salt of the compound of formula 1, the compound of formula 1 was analyzed to determine the solubility in various solvents. First, the compound of formula 1 was supersaturated in a pharmaceutically acceptable solvent as shown in Table 5 and stirred in a dark room at room temperature for 12 hours. It was first centrifuged to take a supernatant, and then again filtered with a 0.25 μm PVDF filter to remove insoluble materials remaining in the solution. The filtrate was diluted with methanol and then subjected to HPLC analysis to quantify the solubility. In addition, HPLC analysis conditions are as follows.
20 μL of each of the test solution and the standard solution were tested according to a liquid chromatography method (HPLC) of general test methods of the Korean Pharmacopoeia under the following conditions, and the peak area of the main component of each solution was measured.
Detector: UV spectrophotometer (measurement wavelength 286 nm)
Column: Aegispak C18-L (4.6 mm×250 mm, 5 μm) column
Column temperature: 25° C.
Mobile phase: Acetonitrile:water=3:2

The test system of data set [3] is MRSA strains (methicillin-resistant Staphylococcus aureus). Kind of data set: MIC test on MRSA clinical isolates. It counts as cell-based. As to conditions: for MIC: Staphylococcus aureus, MRSA, read-out: MIC60. Here is the method: In order to verify the inhibitory effect of the compound of formula 1 on antibiotic-resistant strains, drug susceptibility was evaluated by treating the compound of formula 1 with Staphylococcus aureus phenotype isolated from each patient. […] Appelbaum at Hershey Hospital, who is recognized for its authority in the field of anti-infection worldwide, and about 100 MRSA strains which is currently socially problematic.

The test system of data set [4] is Staphylococcus aureus ATCC 29213 (MSSA, standard strain). Kind of data set: Susceptibility test (MIC), standard strain. It counts as cell-based.
The test system of data set [5] is Staphylococcus aureus 13B-382 (MRSA, clinical strain). In words: Susceptibility test (MIC), clinical strain. It counts as cell-based.

`Cc1c(N)cccc1Cn1ccc(OCCc2cccs2)cc1=O` [compound of formula 1, 1-(3-amino-2-methylbenzyl)-4-(2-thiophen-2-yl-ethoxy)-1H-pyridin-2-one] yielded a pH in data set [1] (of the solubility test in distilled water) of 6.8. Besides, the solubility at 12 h in data set [1] (pH 6.8, thermodynamic from solid, distilled water, room temperature, 12 hours) was 2.5 µg/mL; in data set [2] (PEG 300, organic solvent or mixture, PEG 300, room temperature, read-out: Solubility), 22000 µg/mL; in data set [2] (dichloromethane, organic solvent or mixture, Dichloromethane, room temperature, read-out: Solubility), over 50000 µg/mL; in data set [2] (methanol, organic solvent or mixture, Methanol, room temperature, read-out: Solubility), under 10000 µg/mL; in data set [2] (pH 1.2 aqueous solution, pH 1.2, simulated gastric fluid, pH 1.2 aqueous solution, room temperature, read-out: Solubility) it was about 900 µg/mL; in data set [2] (water, Water, room temperature, read-out: Solubility) it was 2 µg/mL. The solubility at 12 h in data set [2] (water, distilled water / water (neutral), read-out: Solubility in water) stood at 2.5 µg/mL.

With `CCCCCCCCCC(=O)N[C@@H](Cc1c[nH]c2ccccc12)C(=O)N[C@H](CC(N)=O)C(=O)N[C@@H](CC(=O)O)C(=O)N[C@@H]1C(=O)NCC(=O)N[C@@H](CCCN)C(=O)N[C@@H](CC(=O)O)C(=O)N[C@H](C)C(=O)N[C@@H](CC(=O)O)C(=O)NCC(=O)N[C@H](CO)C(=O)N[C@@H]([C@H](C)CC(=O)O)C(=O)N[C@@H](CC(=O)c2ccccc2N)C(=O)O[C@@H]1C` [Daptomycin], the MIC in data set [3] (Methicillin-resistant, n = 100) was found to be 0.5 µg/mL (≈ 0.309 µM).

Turning to `CC[C@H]1OC(=O)[C@H](C)[C@@H](O[C@H]2C[C@@](C)(OC)[C@@H](O)[C@H](C)O2)[C@H](C)[C@@H](O[C@@H]2O[C@H](C)C[C@H](N(C)C)[C@H]2O)[C@](C)(O)C[C@@H](C)CN(C)[C@H](C)[C@@H](O)[C@]1(C)O` [Azithromycin], in data set [3] (Methicillin-resistant, n = 100), the MIC was over 64 µg/mL.

As to `C[C@H]1COc2c(N3CCN(C)CC3)c(F)cc3c(=O)c(C(=O)O)cn1c23` [Levofloxacin], the MIC in data set [3] (Methicillin-resistant, n = 100) is 1 µg/mL (≈ 2.77 µM).

Turning to `CC(=O)NC[C@H]1CN(c2ccc(N3CCOCC3)c(F)c2)C(=O)O1` [Linezolid], the MIC in data set [3] (Methicillin-resistant, n = 100) is 1 µg/mL (≈ 2.96 µM).

As for Teicoplanin, the MIC60 in data set [3] (Methicillin-resistant, n = 100) amounted to 1.0 µg/mL.

As to `CN[C@H](CC(C)C)C(=O)N[C@H]1C(=O)N[C@@H](CC(N)=O)C(=O)N[C@H]2C(=O)N[C@H]3C(=O)N[C@H](C(=O)N[C@H](C(=O)O)c4cc(O)cc(O)c4-c4cc3ccc4O)[C@H](O)c3ccc(c(Cl)c3)Oc3cc2cc(c3O[C@@H]2O[C@H](CO)[C@@H](O)[C@H](O)[C@H]2O[C@H]2C[C@](C)(N)[C@H](O)[C@H](C)O2)Oc2ccc(cc2Cl)[C@H]1O` [Vancomycin], the MIC worked out at 0.5 µg/mL (≈ 0.345 µM) in data set [4], 1 µg/mL (≈ 0.69 µM) in data set [3] and 1 µg/mL (≈ 0.69 µM) in data set [5].

Usually solubility stands for the dissolved amount per volume that the medium holds.

(Values after patent US20220016098A1, “ORALLY ADMINISTERED PHARMACEUTICAL COMPOSITION COMPRISING FAB I INHIBITORS AND METHOD FOR PREPARING SAME” (priority 2018, published 2022).)
